Test results as given in patent US20100160356A1, “NOVEL CYCLOBUTYL COMPOUNDS AS KINASE INHIBITORS” (priority 2006, published 2010).
Converted amounts (≈) assume the structure as drawn.

What was measured:
[1] = Solubility in phosphate buffer by the shake flask method; assay type: physicochemical; conditions: 37 °C, pH 7, aqueous buffer, thermodynamic from solid, pH 7.0, 37° C., 24 h shake flask
Method: The procedure described in Glomme et al. (J. Pharm. Sci. 94(1): 1-16, 2005) is followed. The concentration determination is carried out by HPLC with UV detection against a standard solution.
Buffer: 3.954 g of sodium dihydrogenphosphate monohydrate 6.024 g of sodium chloride +950 ml of ultrapure water. Setting of pH 7.0 using 0.1 M NaOH or 0.1 M HCl.
The samples were shaken at 37° C. and 450 rpm for 24 h. After about 7 h, the pH of the samples was checked and adjusted if necessary. It was checked whether the sample was still present in excess. Just before the end of the 24 h shaking time, the samples were again checked for pH and a precipitate.
• Ultrapure water plant: MilliQ gradient, Millipore, unit: F3PN37462D • Shaker: TiMix control, Bühler • Incubation hood: TH 15, Bühler • pH meter: 766 Calimatic Knick instrument: pH 1 • pH electrode: InLab 423 Mettler • HPLC: column: LiChroCart 125-4 LiChrospher 100 RP-18 • flow rate: 1.000 ml/min • eluents: • eluent A: 2 ml of diethylamine, for synthesis+1000 ml of methanol, LiChrosolv • eluent B: 5 g of ammonium acetate, for analysis+5 ml of methanol, LiChrosolv+995 ml of ultrapure water

TGFβR1 = target: T1, TGFβR1 (Homo sapiens, UniProt P36897); experiment: Inhibition of TGFβR1 (flashplate assay); assay type: biochemical; conditions: flashplate method
T1 sequence (P36897 34-503): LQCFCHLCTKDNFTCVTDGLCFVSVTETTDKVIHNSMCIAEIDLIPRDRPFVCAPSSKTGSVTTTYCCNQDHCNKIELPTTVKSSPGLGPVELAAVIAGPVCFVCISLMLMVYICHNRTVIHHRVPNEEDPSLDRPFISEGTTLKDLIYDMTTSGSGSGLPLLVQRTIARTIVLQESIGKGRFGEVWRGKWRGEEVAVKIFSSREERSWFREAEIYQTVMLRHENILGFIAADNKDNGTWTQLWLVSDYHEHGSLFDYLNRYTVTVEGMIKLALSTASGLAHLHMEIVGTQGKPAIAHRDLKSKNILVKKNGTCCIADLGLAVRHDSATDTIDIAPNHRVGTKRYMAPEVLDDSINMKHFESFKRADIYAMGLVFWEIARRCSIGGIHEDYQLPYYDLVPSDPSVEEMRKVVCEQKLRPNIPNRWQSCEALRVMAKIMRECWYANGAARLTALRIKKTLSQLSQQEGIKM
Method: The test is carried out as described in Example B1b for IGF1R. A biotinylated is added to the TGFβR1 kinase.
The kinase assay is carried out as a 384-well flashplate assay.
The components of the kinase reaction are pipetted into the assay plate. The TGFβR1 kinase is incubated for 45 min with radioactively labelled ^33P-ATP in the presence and absence of test substances together with biotinylated substrate in a total volume of 35 μl. The reaction is terminated using 25 μl of 200 mM EDTA solution, removed by suction after 30 min at room temperature, and the wells are washed with three times with 100 μl of 0.9% NaCl solution each time. The radioactivity is measured using a Topcount scintillation counter (PerkinElmer, USA). IC50 values are calculated using the RS1 computer program.

TIE2 = TIE2 (Homo sapiens, UniProt Q02763); experiment: Inhibition of TIE2 (flashplate assay); assay type: biochemical; conditions: flashplate method
Chain of TIE2 (Q02763 23-1124, species assumed): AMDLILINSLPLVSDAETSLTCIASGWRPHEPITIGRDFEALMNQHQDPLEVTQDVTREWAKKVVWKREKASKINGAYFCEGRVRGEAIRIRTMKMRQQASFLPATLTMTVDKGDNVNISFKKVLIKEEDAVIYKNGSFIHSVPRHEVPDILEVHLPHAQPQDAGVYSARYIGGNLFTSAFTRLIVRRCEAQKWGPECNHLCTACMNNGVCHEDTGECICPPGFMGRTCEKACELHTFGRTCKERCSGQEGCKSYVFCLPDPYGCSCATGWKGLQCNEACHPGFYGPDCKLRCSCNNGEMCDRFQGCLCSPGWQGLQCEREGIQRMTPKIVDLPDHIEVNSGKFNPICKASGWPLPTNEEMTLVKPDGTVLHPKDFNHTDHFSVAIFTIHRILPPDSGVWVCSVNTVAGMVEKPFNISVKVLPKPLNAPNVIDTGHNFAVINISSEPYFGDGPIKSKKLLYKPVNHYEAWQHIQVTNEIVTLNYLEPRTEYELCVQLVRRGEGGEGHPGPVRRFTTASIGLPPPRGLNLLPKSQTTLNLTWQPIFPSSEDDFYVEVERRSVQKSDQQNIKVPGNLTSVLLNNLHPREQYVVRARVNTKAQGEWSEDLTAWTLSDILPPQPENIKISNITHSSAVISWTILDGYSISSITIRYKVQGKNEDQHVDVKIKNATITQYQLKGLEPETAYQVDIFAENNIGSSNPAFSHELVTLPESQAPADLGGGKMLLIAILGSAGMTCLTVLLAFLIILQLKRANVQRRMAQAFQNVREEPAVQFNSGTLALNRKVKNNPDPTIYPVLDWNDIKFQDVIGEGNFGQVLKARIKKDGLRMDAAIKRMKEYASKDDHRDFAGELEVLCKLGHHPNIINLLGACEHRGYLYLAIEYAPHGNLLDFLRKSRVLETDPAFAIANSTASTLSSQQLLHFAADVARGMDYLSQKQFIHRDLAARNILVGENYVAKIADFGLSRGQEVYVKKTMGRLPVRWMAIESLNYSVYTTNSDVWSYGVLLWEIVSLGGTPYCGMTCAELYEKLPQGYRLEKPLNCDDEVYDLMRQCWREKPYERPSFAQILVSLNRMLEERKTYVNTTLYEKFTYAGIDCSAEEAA
Method: B4: inhibition of T1E2 (Flashplate Assay)
(§1) The test plates used are 384-well flashplate microtitre plates from Perkin Elmer (USA). The components of the kinase reaction are pipetted into the assay plate. The TIE2 kinase is incubated for 3 hr. with radioactively labelled ^33P-ATP in the presence and absence of test substances in a total volume of 100 μl at room temperature together with biotinylated poly(Glu, Tyr)4:1. The reaction is terminated using 25 μl of a 200 mM EDTA solution. After incubation for a further 30 min at room temperature, the supernatants are removed by suction, and the wells are washed three times with 100 μl of 0.9% NaCl solution each time. The radioactivity is measured using a Topcount scintillation counter (PerkinElmer, USA). IC50 values are calculated using the RS1 computer program.

VEGF-2 = VEGF-2 (Homo sapiens, UniProt P35968); experiment: Inhibition of VEGF-2 (flashplate assay); assay type: biochemical; conditions: flashplate method
Chain of VEGF-2 (P35968 20-1356): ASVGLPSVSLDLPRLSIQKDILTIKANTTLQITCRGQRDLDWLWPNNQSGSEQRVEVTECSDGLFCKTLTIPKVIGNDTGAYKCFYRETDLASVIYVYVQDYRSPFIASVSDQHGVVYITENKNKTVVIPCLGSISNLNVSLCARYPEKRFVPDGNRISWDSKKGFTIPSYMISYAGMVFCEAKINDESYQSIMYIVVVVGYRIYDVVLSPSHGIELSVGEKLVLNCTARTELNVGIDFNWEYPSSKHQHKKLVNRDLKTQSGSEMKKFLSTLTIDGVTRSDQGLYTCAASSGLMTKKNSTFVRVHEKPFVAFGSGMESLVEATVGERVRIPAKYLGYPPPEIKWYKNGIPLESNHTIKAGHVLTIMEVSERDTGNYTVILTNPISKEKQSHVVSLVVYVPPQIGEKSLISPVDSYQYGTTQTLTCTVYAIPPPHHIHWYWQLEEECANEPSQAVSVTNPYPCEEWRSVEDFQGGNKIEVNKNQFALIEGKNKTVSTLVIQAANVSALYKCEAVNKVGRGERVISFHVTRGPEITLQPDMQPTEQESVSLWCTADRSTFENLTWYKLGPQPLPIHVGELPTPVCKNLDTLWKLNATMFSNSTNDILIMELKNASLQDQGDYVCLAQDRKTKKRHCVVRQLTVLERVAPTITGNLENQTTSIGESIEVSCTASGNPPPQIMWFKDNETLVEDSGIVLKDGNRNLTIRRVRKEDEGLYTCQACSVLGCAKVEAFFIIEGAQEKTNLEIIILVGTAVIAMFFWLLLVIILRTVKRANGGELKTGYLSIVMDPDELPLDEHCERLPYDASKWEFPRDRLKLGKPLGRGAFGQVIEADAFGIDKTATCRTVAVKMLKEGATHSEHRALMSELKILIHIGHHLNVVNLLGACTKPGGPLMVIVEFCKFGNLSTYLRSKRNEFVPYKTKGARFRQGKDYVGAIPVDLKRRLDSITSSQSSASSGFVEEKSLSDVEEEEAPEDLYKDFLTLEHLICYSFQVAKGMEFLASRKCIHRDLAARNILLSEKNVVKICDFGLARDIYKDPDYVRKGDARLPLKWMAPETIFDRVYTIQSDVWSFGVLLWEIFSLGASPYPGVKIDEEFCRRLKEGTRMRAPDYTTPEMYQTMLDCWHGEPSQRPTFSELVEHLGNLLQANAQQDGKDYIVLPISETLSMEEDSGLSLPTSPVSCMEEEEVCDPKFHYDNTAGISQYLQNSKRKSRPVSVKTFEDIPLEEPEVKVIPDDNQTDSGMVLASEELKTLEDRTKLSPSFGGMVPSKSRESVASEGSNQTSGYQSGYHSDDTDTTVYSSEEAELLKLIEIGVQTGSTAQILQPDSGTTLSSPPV
Method: as §1, with “VEGF-2” for “TIE2”

PDGFRβ = PDGFRβ (Homo sapiens, UniProt P09619); experiment: Inhibition of PDGFRβ (flashplate assay); assay type: biochemical; conditions: flashplate method
Chain of PDGFRβ (P09619 33-1106, species assumed): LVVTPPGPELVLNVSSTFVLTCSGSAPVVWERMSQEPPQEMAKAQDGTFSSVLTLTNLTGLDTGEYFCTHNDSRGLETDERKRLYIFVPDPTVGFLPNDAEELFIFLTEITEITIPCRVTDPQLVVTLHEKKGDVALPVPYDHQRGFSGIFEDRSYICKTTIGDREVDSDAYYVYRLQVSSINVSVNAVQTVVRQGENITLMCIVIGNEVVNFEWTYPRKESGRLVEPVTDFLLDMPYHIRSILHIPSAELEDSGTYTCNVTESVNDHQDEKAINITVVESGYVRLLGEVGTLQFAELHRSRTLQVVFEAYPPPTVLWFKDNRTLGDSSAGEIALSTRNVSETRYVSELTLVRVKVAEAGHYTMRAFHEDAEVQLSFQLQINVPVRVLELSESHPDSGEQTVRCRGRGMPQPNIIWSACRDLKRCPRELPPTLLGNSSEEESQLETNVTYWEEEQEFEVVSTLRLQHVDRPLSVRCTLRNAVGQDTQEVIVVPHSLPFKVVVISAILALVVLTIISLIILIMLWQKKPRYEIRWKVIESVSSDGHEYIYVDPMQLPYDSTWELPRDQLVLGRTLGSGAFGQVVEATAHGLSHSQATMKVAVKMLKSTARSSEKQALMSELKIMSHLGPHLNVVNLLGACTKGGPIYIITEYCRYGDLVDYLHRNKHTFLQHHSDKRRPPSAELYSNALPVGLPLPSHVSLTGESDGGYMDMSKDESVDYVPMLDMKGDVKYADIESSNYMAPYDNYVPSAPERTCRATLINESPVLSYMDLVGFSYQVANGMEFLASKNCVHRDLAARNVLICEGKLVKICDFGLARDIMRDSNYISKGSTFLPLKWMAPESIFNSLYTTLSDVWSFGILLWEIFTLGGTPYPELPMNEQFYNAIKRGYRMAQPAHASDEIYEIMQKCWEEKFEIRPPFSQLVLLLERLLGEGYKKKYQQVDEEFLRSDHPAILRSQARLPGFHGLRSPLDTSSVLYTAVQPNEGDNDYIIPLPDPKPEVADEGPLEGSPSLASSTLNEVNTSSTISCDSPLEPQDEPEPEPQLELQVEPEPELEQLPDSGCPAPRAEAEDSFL
Method: as §1, with “are 96-well” for “are 384-well”, “The PDGFRβ” for “The TIE2”, “temperature (here autophosphorylation of the kinase).” for “temperature together with biotinylated poly(Glu, Tyr)4:1.”, “using 150” for “using 25”, “a 60” for “a 200”, “with 200” for “with 100”

[2] = target: T2, FAK (focal adhesion kinase) (Homo sapiens, UniProt Q05397); experiment: Inhibition of FAK (ELISA assay), FAK phosphorylation in cells; assay type: cell-based; conditions: human cells with FAK amplification
T2 construct: endogenous in cells; host or cells: Calu-6 or HT-29
Method: Activated FAK promotes the invasive growth of tumour cells and inhibits anoikis.
The amount of phosphorylated FAK is determined by a specific capture ELISA or an analogous LUMINEX assay. FAK from cell lysates is bound to a 96-well ELISA plate or LUMINEX beads by means of a specific antibody (“capturing”), and the tyrosine phosphorylation is detected using a biotin-labelled anti-phosphotyrosine antibody and a streptavidin-peroxidase conjugate by a chemiluminescence method or by means of a fluorescence-labelled anti-phosphotyrosine antibody.
For determination of the activity of kinase inhibitors, cells are pretreated with increasing concentrations of these compounds for 45 min, and the FAK phosphorylation is then determined. As internal control, a concentration series of a reference inhibitor is measured.

IGF1R = IGF1R (Homo sapiens, UniProt P08069); experiment: Inhibition of IGF1R (flashplate assay); assay type: biochemical; conditions: flashplate method
Chain of IGF1R (P08069 31-1367, species assumed): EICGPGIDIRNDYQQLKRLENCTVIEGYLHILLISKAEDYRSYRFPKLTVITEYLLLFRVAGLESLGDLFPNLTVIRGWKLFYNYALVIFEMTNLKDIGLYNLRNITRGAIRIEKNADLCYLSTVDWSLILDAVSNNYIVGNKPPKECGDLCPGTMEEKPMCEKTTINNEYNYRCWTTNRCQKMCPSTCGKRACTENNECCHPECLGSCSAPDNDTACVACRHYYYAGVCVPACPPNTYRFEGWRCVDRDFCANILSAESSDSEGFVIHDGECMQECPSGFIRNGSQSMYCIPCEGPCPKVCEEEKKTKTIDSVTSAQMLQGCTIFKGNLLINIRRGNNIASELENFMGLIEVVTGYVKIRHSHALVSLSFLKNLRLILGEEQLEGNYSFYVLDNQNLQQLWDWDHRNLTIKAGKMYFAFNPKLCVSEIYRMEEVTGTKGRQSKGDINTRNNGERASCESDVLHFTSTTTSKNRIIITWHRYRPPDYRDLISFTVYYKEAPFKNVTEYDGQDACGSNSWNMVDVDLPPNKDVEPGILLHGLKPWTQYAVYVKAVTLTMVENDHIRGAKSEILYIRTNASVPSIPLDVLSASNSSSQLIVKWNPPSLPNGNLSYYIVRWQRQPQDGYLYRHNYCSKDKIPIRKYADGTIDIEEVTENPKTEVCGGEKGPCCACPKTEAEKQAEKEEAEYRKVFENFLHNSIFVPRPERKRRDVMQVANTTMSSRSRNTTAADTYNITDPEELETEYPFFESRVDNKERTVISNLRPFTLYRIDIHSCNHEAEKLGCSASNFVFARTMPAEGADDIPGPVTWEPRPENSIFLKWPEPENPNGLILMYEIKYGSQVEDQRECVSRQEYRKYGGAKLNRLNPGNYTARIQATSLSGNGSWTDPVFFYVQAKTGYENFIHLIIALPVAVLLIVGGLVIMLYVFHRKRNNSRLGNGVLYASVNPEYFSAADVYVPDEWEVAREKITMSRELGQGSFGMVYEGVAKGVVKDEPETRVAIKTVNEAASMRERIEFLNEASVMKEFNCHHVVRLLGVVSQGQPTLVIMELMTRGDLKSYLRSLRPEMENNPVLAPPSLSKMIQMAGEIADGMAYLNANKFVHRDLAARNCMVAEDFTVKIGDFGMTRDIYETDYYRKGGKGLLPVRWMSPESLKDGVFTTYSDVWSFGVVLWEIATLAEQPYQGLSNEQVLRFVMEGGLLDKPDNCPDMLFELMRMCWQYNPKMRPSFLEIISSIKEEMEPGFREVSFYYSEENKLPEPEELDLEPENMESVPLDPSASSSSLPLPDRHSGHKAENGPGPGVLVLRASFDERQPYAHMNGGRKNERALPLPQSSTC
Method: as §1, with “are 96-well” for “are 384-well”, “The IGF1R” for “The TIE2”, “for 1” for “for 3”

IGF1 receptor (IGF1R) = target: T3, IGF1 receptor (IGF1R) (Homo sapiens, UniProt P08069); experiment: Inhibition of IGF1R (ELISA assay), IGF1-stimulated autophosphorylation in cells; assay type: cell-based; conditions: human tumour cells stimulated with IGF1, read-out: IC50 IGF (ELISA)
T3 construct: endogenous in cells; host or cells: MCF-7 or Calu-6
T3 sequence (P08069 31-1367): as the sequence (P08069 31-1367, species assumed) above
Method: The stimulation induces an autophosphorylation of tyrosine residues in the cytoplasmatic IGF1R domain, which triggers signal transduction cascades, which result in inhibition of apoptosis and proliferation of the cells.
The amount of phosphorylated IGF1R is determined by a receptor-specific capture ELISA or an analogous LUMINEX assay. The IGF1R from cell lysates is bound to a 96-well ELISA plate or LUMINEX beads by means of a specific antibody (“capturing”), and the tyrosine phosphorylation is detected using a biotin-labelled anti-phosphotyrosine antibody and a streptavidin-peroxidase conjugate by a chemiluminescence method or by means of a fluorescence-labelled anti-phosphotyrosine antibody.
For determination of the activity of kinase inhibitors, cells are pretreated with increasing concentrations of these compounds for 45 min and subsequently stimulated using IGF1 for 5 min. As internal control, the biological activity of the ligand IGF1 is checked, and a concentration series of an IGF1R reference inhibitor is measured.

Nc1ncnc2c1c(-c1cccc(OCc3ccccc3)c1)cn2C1CC(CN2C(=O)c3ccccc3C2=O)C1 (stereo not drawn) [2-{3-[4-Amino-5-(3-benzyloxyphenyl)pyrrolo[2,3-d]pyrimidin-7-yl]cyclobutylmethyl}isoindole-1,3-dione, reference compound]
solubility at 24 h [1]: < 1 µg/mL

Nc1ncnc2c1c(-c1cccc(OCc3ccccc3)c1)cn2C1CC(CN2CCCC2)C1 (stereo not drawn) [5-(3-Benzyloxyphenyl)-7-(3-pyrrolidin-1-ylmethyl-cyclobutyl)-7H-pyrrolo[2,3-d]pyrimidin-4-ylamine, reference compound]
solubility at 24 h [1]: 53 µg/mL (≈ 117 µM)

NCC1CC(n2cc(-c3cccc(OCc4ccccc4)c3)c3c(N)ncnc32)C1 (stereo not drawn) [7-(3-Aminomethylcyclobutyl)-5-(3-benzyloxyphenyl)-7H-pyrrolo[2,3-d]pyrimidin-4-ylamine, reference compound]
solubility at 24 h [1]: 233 µg/mL (≈ 583 µM)

NCC1CC(n2cc(-c3ccccc3)c3c(N)ncnc32)C1 (stereo not drawn) [Compound 4]
IC50 (TGFβR1): 2800 nM
IC50 (TIE2): 7400 nM
IC50 (VEGF-2): 1100 nM
IC50 (PDGFRβ): 920 nM
IC50 [2]: 1100 nM
melting point: 84 to 86 °C
IC50 (IGF1R): 7400 nM

NCC1CC(n2cc(-c3ccc(N)cc3)c3c(N)ncnc32)C1 (stereo not drawn) [Compound 5]
IC50 (TGFβR1): 2900 nM
IC50 (VEGF-2): 630 nM
IC50 (PDGFRβ): 630 nM
solubility at 24 h [1]: 1090 µg/mL (≈ 3530 µM)
melting point: 319.5 to 321 °C (dec.)
IC50 (IGF1R): 2300 nM

NCC1CC(n2cc(-c3cccc(F)c3)c3c(N)ncnc32)C1 (stereo not drawn) [Compound 6, 7-(3-aminomethylcyclobutyl)-5-(3-fluorophenyl)-7H-pyrrolo[2,3-d]pyrimidin-4-ylamine]
IC50 (TGFβR1): 1700 nM
IC50 (VEGF-2): 1800 nM
IC50 (PDGFRβ): 700 nM
IC50 [2]: 1400 nM
melting point: 101 to 102 °C
IC50 (IGF1R): 7500 nM

CCCCOc1cccc(-c2cn(C3CC(CN)C3)c3ncnc(N)c23)c1 (stereo not drawn) [Compound 7, 7-(3-Aminomethylcyclobutyl)-5-(3-butoxyphenyl)-7H-pyrrolo[2,3-d]pyrimidin-4-ylamine]
IC50 (TIE2): 910 nM
IC50 (VEGF-2): 9100 nM
solubility at 24 h [1]: 1120 µg/mL (≈ 3070 µM)
IC50 (IGF1R): 1200 nM

CS(=O)(=O)c1cccc(-c2cn(C3CC(CN)C3)c3ncnc(N)c23)c1 (stereo not drawn) [Compound 11, 7-(3-Aminomethylcyclobutyl)-5-(3-methanesulfonyl-phenyl)-7H-pyrrolo[2,3-d]pyrimidin-4-ylamine]
IC50 [2]: 28000 nM
solubility at 24 h [1]: > 1000 µg/mL
IC50 (IGF1 receptor (IGF1R)): 10000 nM

NCC1CC(n2cc(-c3ccc(N)cc3)c3c(N)ncnc32)C1 (stereo not drawn) [Compound 24]
IC50 (TIE2): 1500 nM
IC50 (VEGF-2): 630 nM
IC50 (PDGFRβ): 630 nM
IC50 [2]: 3300 nM
IC50 (IGF1R): 2300 nM
IC50 (IGF1 receptor (IGF1R)): 9200 nM

NCC1CC(n2cc(-c3ccc4c(ccn4Cc4ccccc4)c3)c3c(N)ncnc32)C1 (stereo not drawn) [Compound 56]
IC50 (TGFβR1): 5000 nM
IC50 (TIE2): 495 nM
IC50 (VEGF-2): 61 nM
IC50 (IGF1R): 1400 nM
IC50 (IGF1 receptor (IGF1R)): 4100 nM

CC(=O)NCC1CC(n2cc(-c3cccc(OCc4ccccc4)c3)c3c(N)ncnc32)C1 (stereo not drawn) [N-{3-[4-Amino-5-(3-benzyloxyphenyl)pyrrolo[2,3-d]pyrimidin-7-yl]cyclobutylmethyl}acetamide, reference compound]
solubility at 24 h [1]: 5 µg/mL (≈ 11.3 µM)

Nc1ncnc2c1c(-c1cccc(OCc3ccccc3)c1)cn2C1CC(CNC(=O)N2CCCCC2)C1 (stereo not drawn) [Piperidine-1-carboxylic acid {3-[4-amino-5-(3-benzyloxy-phenyl)pyrrolo[2,3-d]pyrimidin-7-yl]cyclo-butylmethyl}amide, reference compound]
solubility at 24 h [1]: < 1 µg/mL
